Test results reported in paper PMC8213057, “Targeting ALK2: An Open Science Approach to Developing Therapeutics for the Treatment of Diffuse Intrinsic Pontine Glioma” (Journal of Medicinal Chemistry, 2020).
Where “and” joins values, the source holds several entries; their conditions need not be identical. Equal entries are not always repeated.

Assays:
TRKA = TRKA (Homo sapiens, UniProt P04629); conditions: 1 μM; Run 1, Run 2
CAMK2b = CAMK2b (Homo sapiens, UniProt Q13554); experiment: biochemical; conditions: read-out: % enzyme activity, 1 μM; Run 1, Run 2
Sequence of CAMK2b (Q13554 whole entry): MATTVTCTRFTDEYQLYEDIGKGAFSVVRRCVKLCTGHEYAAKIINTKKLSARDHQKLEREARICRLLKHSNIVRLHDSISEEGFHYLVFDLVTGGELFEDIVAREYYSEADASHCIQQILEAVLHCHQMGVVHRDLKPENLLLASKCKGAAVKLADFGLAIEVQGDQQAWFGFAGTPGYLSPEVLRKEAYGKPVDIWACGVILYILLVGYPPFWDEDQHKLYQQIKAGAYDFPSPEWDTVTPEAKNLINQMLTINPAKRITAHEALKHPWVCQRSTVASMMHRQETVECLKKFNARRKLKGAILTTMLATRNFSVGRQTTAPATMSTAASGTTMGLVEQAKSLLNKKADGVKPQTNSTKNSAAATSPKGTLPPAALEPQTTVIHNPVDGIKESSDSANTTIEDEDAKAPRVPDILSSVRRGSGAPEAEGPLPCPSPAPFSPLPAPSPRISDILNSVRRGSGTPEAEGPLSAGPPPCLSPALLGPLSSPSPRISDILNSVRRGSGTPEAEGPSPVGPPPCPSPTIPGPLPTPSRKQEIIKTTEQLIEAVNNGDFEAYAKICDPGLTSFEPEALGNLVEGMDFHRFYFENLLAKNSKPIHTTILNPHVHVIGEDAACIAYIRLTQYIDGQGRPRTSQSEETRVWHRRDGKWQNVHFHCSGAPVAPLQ

IRR/INSRR = IRR/INSRR (Homo sapiens, UniProt P14616); experiment: biochemical; conditions: read-out: % enzyme activity, 1 μM; Run 1, Run 2
Sequence of IRR/INSRR (P14616 27-1297): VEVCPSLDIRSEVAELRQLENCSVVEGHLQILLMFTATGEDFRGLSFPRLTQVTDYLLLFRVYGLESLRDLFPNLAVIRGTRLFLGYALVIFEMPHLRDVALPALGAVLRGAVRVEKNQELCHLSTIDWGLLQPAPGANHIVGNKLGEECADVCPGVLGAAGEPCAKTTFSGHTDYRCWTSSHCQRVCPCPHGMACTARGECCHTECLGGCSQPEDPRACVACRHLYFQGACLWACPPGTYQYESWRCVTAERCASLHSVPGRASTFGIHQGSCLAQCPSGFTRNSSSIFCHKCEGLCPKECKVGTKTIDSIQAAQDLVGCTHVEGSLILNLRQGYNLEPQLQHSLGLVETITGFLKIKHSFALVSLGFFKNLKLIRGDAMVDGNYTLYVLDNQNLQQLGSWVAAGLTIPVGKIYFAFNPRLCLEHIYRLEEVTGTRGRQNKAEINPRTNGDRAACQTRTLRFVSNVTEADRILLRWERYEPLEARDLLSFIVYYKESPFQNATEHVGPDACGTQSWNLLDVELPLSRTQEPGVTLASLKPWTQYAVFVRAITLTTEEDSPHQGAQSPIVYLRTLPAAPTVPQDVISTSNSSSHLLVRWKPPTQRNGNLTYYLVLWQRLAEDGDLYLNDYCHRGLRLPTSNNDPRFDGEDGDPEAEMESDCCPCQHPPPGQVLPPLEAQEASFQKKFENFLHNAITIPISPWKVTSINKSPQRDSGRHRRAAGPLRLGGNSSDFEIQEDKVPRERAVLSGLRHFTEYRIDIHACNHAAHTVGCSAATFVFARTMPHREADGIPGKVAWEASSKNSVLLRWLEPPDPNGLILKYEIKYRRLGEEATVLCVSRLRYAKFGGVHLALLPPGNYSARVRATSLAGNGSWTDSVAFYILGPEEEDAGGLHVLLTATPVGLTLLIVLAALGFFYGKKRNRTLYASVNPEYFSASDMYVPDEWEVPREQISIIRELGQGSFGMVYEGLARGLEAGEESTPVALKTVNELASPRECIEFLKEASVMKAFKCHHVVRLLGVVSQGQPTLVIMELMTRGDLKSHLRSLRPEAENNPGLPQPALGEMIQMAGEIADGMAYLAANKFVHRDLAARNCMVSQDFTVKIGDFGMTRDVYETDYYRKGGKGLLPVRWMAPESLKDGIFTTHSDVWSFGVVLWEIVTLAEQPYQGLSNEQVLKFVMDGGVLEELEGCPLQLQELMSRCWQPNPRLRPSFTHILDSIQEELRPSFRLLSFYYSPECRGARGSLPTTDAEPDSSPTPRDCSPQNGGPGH

DAPK1 = DAPK1 (Homo sapiens, UniProt P53355); experiment: biochemical; conditions: read-out: % enzyme activity, 1 μM; Run 1, Run 2
Aurora A = target: T1, Aurora A (Homo sapiens, UniProt O14965); conditions: 1 μM; Run 1, Run 2
T1 sequence (O14965 1-403): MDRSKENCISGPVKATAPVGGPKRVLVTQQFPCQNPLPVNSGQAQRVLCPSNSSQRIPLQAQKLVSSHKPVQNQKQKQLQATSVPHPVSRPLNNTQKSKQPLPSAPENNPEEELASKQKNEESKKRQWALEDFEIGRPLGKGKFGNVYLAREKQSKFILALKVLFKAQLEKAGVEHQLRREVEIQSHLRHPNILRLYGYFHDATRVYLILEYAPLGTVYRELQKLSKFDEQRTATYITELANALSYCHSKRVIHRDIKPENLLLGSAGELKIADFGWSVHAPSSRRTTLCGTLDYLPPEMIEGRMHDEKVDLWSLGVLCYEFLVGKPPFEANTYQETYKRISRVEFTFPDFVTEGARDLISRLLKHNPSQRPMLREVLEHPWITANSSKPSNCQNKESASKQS

c-MER = target: T2, c-MER (Homo sapiens, UniProt Q12866); experiment: biochemical; conditions: read-out: % enzyme activity, 1 μM; Run 1, Run 2
T2 sequence (Q12866 21-999): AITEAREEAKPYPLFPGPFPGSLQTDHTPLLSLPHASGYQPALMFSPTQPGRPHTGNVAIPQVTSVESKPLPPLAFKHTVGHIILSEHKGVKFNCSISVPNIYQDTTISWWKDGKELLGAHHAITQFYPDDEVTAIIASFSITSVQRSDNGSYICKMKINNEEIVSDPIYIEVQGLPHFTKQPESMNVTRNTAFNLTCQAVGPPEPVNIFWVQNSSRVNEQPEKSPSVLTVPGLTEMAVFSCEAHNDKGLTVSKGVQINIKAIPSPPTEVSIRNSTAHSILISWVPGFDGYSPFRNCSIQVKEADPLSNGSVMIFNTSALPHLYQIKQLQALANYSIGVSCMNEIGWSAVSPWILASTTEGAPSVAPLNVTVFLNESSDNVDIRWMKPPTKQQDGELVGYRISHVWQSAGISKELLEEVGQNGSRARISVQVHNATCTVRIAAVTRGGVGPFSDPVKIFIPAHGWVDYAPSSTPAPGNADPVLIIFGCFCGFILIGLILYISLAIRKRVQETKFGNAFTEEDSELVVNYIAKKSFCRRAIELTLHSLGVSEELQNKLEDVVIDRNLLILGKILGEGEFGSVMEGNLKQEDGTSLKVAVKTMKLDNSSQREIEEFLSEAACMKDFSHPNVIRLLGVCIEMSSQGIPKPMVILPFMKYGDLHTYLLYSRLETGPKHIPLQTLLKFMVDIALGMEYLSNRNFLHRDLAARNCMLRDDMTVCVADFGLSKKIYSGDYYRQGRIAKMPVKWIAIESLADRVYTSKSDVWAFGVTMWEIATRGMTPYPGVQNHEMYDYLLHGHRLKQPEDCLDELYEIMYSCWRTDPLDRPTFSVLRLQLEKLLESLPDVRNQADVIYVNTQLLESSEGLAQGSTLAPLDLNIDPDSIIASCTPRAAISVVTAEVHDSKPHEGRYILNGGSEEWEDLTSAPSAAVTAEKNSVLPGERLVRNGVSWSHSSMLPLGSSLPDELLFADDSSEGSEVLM

EGFR = EGFR (Homo sapiens, UniProt P00533); experiment: biochemical; conditions: read-out: % enzyme activity, 1 μM; Run 1, Run 2
Sequence of EGFR (P00533 25-1210): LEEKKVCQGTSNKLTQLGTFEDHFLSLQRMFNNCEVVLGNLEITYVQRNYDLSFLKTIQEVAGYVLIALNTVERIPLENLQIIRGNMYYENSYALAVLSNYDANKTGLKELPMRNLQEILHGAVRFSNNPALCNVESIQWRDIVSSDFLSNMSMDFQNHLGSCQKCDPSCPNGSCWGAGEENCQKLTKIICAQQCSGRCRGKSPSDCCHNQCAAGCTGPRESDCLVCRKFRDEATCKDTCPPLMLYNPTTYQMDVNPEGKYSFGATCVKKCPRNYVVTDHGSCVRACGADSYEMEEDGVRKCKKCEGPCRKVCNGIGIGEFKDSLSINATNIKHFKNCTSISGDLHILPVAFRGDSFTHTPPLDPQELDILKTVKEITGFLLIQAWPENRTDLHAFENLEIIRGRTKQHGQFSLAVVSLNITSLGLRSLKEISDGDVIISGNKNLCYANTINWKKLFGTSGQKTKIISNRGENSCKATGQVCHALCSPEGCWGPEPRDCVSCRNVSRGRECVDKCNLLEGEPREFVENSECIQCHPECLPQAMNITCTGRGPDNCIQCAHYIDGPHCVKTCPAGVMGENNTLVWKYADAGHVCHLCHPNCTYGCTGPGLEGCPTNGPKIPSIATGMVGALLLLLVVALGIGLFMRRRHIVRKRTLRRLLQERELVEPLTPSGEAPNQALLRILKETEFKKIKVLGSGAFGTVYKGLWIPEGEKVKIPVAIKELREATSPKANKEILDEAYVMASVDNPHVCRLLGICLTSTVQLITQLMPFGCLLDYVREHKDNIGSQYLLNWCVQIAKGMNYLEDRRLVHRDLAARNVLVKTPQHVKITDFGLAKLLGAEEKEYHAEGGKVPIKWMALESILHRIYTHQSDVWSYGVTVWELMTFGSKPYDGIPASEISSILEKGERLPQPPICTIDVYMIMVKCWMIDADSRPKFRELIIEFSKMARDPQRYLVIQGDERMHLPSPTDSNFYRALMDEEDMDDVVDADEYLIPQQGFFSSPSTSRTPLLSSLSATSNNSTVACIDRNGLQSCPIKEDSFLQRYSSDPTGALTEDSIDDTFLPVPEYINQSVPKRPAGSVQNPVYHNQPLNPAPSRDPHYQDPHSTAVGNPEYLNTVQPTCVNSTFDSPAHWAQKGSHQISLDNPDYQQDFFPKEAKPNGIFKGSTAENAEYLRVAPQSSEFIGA

CDK2/cyclin E2 = CDK2/cyclin E2 (Homo sapiens, UniProt P24941); experiment: biochemical; conditions: read-out: % enzyme activity, 1 μM; Run 1, Run 2
CDK5/P25 = CDK5/P25 (Homo sapiens, UniProt Q00535); experiment: biochemical; conditions: read-out: % enzyme activity, 1 μM; Run 1, Run 2
Sequence of CDK5/P25 (Q00535 whole entry): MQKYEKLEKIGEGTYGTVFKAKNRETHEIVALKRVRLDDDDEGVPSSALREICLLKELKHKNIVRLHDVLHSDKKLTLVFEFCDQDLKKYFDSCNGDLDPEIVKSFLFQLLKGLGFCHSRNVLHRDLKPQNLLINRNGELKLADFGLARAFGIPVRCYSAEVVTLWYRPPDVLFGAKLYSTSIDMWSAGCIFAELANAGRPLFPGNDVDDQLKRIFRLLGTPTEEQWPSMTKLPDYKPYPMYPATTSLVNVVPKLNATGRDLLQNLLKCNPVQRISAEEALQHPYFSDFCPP
Sequence of CDK5/P25 (Q15078 99-307 partner limits assumed): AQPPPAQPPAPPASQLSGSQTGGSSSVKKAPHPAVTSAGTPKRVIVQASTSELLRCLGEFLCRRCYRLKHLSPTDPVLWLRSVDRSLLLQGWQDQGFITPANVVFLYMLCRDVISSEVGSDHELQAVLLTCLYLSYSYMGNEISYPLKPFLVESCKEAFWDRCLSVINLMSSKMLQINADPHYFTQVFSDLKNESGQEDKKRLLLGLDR

GRK3 = target: T3, GRK3 (Homo sapiens, UniProt P35626); conditions: 1 μM; Run 1, Run 2
T3 sequence (P35626 1-688): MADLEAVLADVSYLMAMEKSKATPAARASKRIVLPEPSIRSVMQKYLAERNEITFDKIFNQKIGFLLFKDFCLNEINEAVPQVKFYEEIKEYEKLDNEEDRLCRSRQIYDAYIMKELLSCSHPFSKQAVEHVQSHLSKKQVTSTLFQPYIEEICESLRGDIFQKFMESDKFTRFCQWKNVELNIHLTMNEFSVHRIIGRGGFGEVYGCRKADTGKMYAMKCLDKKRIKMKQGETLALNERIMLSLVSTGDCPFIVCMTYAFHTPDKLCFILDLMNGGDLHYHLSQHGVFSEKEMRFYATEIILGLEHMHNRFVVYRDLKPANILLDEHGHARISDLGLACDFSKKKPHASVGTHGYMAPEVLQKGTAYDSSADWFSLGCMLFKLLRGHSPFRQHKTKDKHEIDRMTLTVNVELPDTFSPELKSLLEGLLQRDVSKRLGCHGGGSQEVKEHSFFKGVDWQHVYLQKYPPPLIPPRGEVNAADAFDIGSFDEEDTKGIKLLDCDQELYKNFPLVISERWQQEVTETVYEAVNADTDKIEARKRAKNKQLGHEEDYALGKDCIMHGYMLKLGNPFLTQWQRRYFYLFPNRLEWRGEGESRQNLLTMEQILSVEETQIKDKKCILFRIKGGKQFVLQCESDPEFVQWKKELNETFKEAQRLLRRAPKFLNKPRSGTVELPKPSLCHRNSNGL

WEE1 = WEE1 (Homo sapiens, UniProt P30291); experiment: biochemical; conditions: read-out: % enzyme activity, 1 μM; Run 1, Run 2
Sequence of WEE1 (P30291 whole entry, species assumed): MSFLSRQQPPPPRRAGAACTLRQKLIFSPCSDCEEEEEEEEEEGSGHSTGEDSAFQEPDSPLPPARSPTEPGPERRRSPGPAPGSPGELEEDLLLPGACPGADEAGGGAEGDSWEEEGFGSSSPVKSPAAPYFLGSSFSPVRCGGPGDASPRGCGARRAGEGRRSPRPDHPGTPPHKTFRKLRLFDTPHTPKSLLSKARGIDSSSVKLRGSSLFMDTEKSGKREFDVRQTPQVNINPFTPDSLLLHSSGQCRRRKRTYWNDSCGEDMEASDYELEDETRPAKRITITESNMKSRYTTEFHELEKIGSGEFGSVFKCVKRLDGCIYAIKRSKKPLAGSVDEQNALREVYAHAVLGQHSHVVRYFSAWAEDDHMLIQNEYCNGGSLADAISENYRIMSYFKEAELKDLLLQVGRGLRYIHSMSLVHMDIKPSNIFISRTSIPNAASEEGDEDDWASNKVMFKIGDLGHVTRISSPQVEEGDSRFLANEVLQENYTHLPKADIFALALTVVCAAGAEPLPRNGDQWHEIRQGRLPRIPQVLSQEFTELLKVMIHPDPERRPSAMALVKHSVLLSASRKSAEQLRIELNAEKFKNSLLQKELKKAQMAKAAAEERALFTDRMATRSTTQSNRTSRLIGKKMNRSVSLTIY

HIPK3 = HIPK3 (Homo sapiens, UniProt Q9H422); conditions: 1 μM; Run 1, Run 2
FER = FER (Homo sapiens, UniProt P16591); conditions: 1 μM; Run 1, Run 2

Sequence of TRKA (P04629 33-796): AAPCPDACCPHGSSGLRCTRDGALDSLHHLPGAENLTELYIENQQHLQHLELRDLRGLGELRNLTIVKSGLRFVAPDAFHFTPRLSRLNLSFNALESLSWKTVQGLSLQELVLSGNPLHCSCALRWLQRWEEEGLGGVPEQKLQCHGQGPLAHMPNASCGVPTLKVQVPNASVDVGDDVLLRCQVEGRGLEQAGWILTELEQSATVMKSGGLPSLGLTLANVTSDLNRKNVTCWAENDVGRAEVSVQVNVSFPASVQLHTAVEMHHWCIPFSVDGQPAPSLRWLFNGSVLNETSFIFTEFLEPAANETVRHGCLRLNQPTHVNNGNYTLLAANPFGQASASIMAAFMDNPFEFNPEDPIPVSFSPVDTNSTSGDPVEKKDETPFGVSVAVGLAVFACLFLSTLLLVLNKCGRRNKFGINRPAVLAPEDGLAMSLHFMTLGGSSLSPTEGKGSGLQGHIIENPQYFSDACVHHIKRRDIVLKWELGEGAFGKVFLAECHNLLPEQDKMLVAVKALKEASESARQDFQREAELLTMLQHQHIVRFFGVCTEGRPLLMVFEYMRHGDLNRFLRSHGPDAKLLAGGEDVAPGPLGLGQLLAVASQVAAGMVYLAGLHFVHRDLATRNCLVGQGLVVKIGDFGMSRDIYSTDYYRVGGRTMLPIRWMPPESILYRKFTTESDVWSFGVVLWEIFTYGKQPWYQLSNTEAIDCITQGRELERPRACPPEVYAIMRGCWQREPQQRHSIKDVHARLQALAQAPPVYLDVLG

Row | Structure (SMILES) | % enzyme activity (TRKA) [%] | % enzyme activity at 1 μM (ARAF) | remaining activity at 1 µM (CAMK2b) [%] | remaining activity at 1 µM (IRR/INSRR) [%] | remaining activity at 1 µM (DAPK1) [%] | % enzyme activity (Aurora A) [%] | remaining activity at 1 µM (c-MER) [%] | remaining activity at 1 µM (EGFR) [%] | remaining activity at 1 µM (CDK2/cyclin E2) [%] | remaining activity at 1 µM (CDK5/P25) [%] | % enzyme activity (GRK3) [%] | remaining activity at 1 µM (WEE1) [%] | % enzyme activity (HIPK3) [%] | % enzyme activity (FER) [%]
1 | COc1cc(-c2cncc(-c3ccc(N4CCN(C)CC4)cc3)c2C)cc(F)c1C(N)=O [Compound 26a, 2-Fluoro-6-methoxy-4-(4-methyl-5-(4-(4-methylpiperazin-1-yl)phenyl)pyridin-3-yl)benzamide] | 90.11 | 29.3% and 28.8% | 83.9 | 108 | 95.7 | 97.24 | 100 | 96 | 108 | 94.6 | 94.07 | 105 | 97.73 | 86.16
2 | COc1cc(-c2cncc(-c3ccc(N4C[C@@H](C)N(C)[C@@H](C)C4)cc3)c2C)cc(F)c1C(N)=O [Compound 26c, 2-Fluoro-6-methoxy-4-(4-methyl-5-(4-((3R,5S)-3,4,5-trimethylpiperazin-1-yl)phenyl)pyridin-3-yl)benzamide] | 94.00 | 48.1% and 43.3% | 92.8 | 121 | 98.8 | 101.37 | 101 | 95.3 | 95 | 94.8 | 95.20 | 105 | 89.08 | 84.91
